Data published in article PMC8742467, “Therapeutical interference with the epigenetic landscape of germ cell tumors: a comparative drug study and new mechanistical insights” (Clinical Epigenetics, 2022).

Assays:
[1] = system: histone modifications in 2102EP cells; test: Mass spectrometry analysis of histone modifications (Mod Spec); type: cell-based, Human
Outline: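 2102EP cells were treated for 16 h with EC50 concentrations of Quisinostat, JIB-04, Chaetocin, MZ-1, LP99, PRT4165 or GSK343, with DMSO as solvent control. After trypsin harvest, histones were extracted and analysed by mass spectrometry. Raw data were converted to z-scores.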

[2] = system: DNA methylation (5mC, 5hmC) in 2102EP cells; test: DNA slot blot (5mC, 5hmC); type: cell-based, Human; details: 24 h
Procedure: Purity of DNA was verified using NanoDrop 260/280 ratio and agarose gel electrophoresis. DNA was diluted in H2O to 200 ng, 100 ng and 50 ng in 200 µl per slot. Slot-Blotter device (Carl Roth GmbH + Co KG, Karlsruhe, Germany) was assembled as according to the manual. DNA was blotted onto a positively charged nylon membrane (Carl Roth GmbH + Co KG, Karlsruhe, Germany) using vacuum application. Three identical membranes were prepared. The membranes were air-dried for 15—20 min and UV-crosslinked (20 s (s), 1200 mJ/cm^2). One membrane was stained with methylene blue (0.02% methylene blue (Merck Millipore, Darmstadt, Germany) in 0.3 M sodium acetate (pH 5.2)) to validate DNA loading across the samples. The remaining two membranes were blocked in 5% milk powder in PBST for 1 h at RT. Membranes were incubated with 5mC or 5hmC antibody overnight at 4 °C. After washing, membranes were incubated with secondary antibody for 2 h at RT. Signals were detected using the ChemiDoc Imaging Systems (Bio-Rad Laboratories, Feldkirchen, Germany).

[3] = 2102EP cells, Mod Spec raw data
[4] = 2102EP, EC50, 16 h, vs solvent control

O=C1C(=Cc2cccnc2)C(=O)c2ccccc21 [PRT4165]
H1.4: K25AC, % of peptide pool [1, 3]: 0.05173%
H1.4: K25ME1, % of peptide pool [1, 3]: 2.298%
H1.4: K25ME2, % of peptide pool [1, 3]: 0.1042%
H1.4: K25ME3, % of peptide pool [1, 3]: 0.02395%
H1.4: K25UN, % of peptide pool [1, 3]: 97.522%
H2A1: K13AC, % of peptide pool [1, 3]: 0.008344%
H2A1: K13UN, % of peptide pool [1, 3]: 99.9917%
H2A1: K15AC, % of peptide pool [1, 3]: 0.002728%
H2A1: K15UB, % of peptide pool [1, 3]: 0%
H2A1: K15UN, % of peptide pool [1, 3]: 99.9973%
H2A3: K13AC, % of peptide pool [1, 3]: 0.03698%
H2A3: K13UN, % of peptide pool [1, 3]: 99.963%
H2A3: K15AC, % of peptide pool [1, 3]: 0.08285%
H2A3: K15UB, % of peptide pool [1, 3]: 0%
H2A3: K15UN, % of peptide pool [1, 3]: 99.9171%
H2A: K5AC, % of peptide pool [1, 3]: 15.4182%
H2A: K5UN, % of peptide pool [1, 3]: 84.5818%
H2A: K9AC, % of peptide pool [1, 3]: 1.95%
H2A: K9UN, % of peptide pool [1, 3]: 98.0496%
H2A: K36AC, % of peptide pool [1, 3]: 0.05592%
H2A: K36UN, % of peptide pool [1, 3]: 99.9441%
H3: K9AC, % of peptide pool [1, 3]: 0.7791%
H3: K9ME1, % of peptide pool [1, 3]: 33.7783%
H3: K9ME2, % of peptide pool [1, 3]: 30.8531%
H3: K9ME3, % of peptide pool [1, 3]: 3.071%
H3: K9UN, % of peptide pool [1, 3]: 31.5183%
H3: K14AC, % of peptide pool [1, 3]: 32.0961%
H3: K14UN, % of peptide pool [1, 3]: 67.9039%
H3: K18AC, % of peptide pool [1, 3]: 12.9985%
H3: K18ME1, % of peptide pool [1, 3]: 0.1614%
H3: K18UN, % of peptide pool [1, 3]: 86.8401%
H3: K23AC, % of peptide pool [1, 3]: 19.4498%
H3: K23ME1, % of peptide pool [1, 3]: 0.05975%
H3: K23UN, % of peptide pool [1, 3]: 80.4904%
H3: K56AC, % of peptide pool [1, 3]: 0.4117%
H3: K56ME1, % of peptide pool [1, 3]: 1.0746%
H3: K56UN, % of peptide pool [1, 3]: 98.5137%
H3: K64AC, % of peptide pool [1, 3]: 0.02258%
H3: K64UN, % of peptide pool [1, 3]: 99.9774%
H3: K79AC, % of peptide pool [1, 3]: 3.311%
H3: K79ME1, % of peptide pool [1, 3]: 23.508%
H3: K79ME2, % of peptide pool [1, 3]: 7.992%
H3: K79ME3, % of peptide pool [1, 3]: 11.4561%
H3: K79UN, % of peptide pool [1, 3]: 53.7325%
H3: K122AC, % of peptide pool [1, 3]: 0.1739%
H3: K122UN, % of peptide pool [1, 3]: 99.8261%
H3: Q19ME1, % of peptide pool [1, 3]: 0.01555%
H3: Q19UN, % of peptide pool [1, 3]: 99.9844%
H3: Q55ME1, % of peptide pool [1, 3]: 0.5287%
H3: Q55UN, % of peptide pool [1, 3]: 99.4713%
H3: R42ME2, % of peptide pool [1, 3]: 2.978%
H3: R42UN, % of peptide pool [1, 3]: 97.0223%
H3: R49ME2, % of peptide pool [1, 3]: 9.973%
H3: R49UN, % of peptide pool [1, 3]: 90.0271%
H3R2UN: K4AC, % of peptide pool [1, 3]: 0.1986%
H3R2UN: K4ME1, % of peptide pool [1, 3]: 18.1935%
H3R2UN: K4ME2, % of peptide pool [1, 3]: 0.2356%
H3R2UN: K4ME3, % of peptide pool [1, 3]: 0.09008%
H3R2UN: K4UN, % of peptide pool [1, 3]: 81.2822%
H3R2UN: Q5ME1, % of peptide pool [1, 3]: 0.1103%
H3R2UN: Q5UN, % of peptide pool [1, 3]: 99.8897%
H3.1: K27AC, % of peptide pool [1, 3]: 2.4319%
H3.1: K27ME1, % of peptide pool [1, 3]: 48.1679%
H3.1: K27ME2, % of peptide pool [1, 3]: 21.916%
H3.1: K27ME3, % of peptide pool [1, 3]: 3.429%
H3.1: K27UN, % of peptide pool [1, 3]: 24.0551%
H3.1: K36AC, % of peptide pool [1, 3]: 0.4356%
H3.1: K36ME1, % of peptide pool [1, 3]: 14.9062%
H3.1: K36ME2, % of peptide pool [1, 3]: 45.0841%
H3.1: K36ME3, % of peptide pool [1, 3]: 22.3724%
H3.1: K36UN, % of peptide pool [1, 3]: 17.2016%
H3.3: K27AC, % of peptide pool [1, 3]: 6.482%
H3.3: K27M, % of peptide pool [1, 3]: 0%
H3.3: K27ME1, % of peptide pool [1, 3]: 46.8114%
H3.3: K27ME2, % of peptide pool [1, 3]: 16.0905%
H3.3: K27ME3, % of peptide pool [1, 3]: 6.139%
H3.3: K27UN, % of peptide pool [1, 3]: 24.4778%
H3.3: K36AC, % of peptide pool [1, 3]: 3.39%
H3.3: K36ME1, % of peptide pool [1, 3]: 13.3786%
H3.3: K36ME2, % of peptide pool [1, 3]: 45.5834%
H3.3: K36ME3, % of peptide pool [1, 3]: 23.7392%
H3.3: K36UN, % of peptide pool [1, 3]: 13.9089%
H4: K5AC, % of peptide pool [1, 3]: 8.039%
H4: K5UN, % of peptide pool [1, 3]: 91.9614%
H4: K8AC, % of peptide pool [1, 3]: 12.3075%
H4: K8UN, % of peptide pool [1, 3]: 87.6925%
H4: K12AC, % of peptide pool ([1]; 2102EP cells, Mod Spec raw data, histone H4 K12 acetylated): 6.955 % of peptide pool
H4: K12UN, % of peptide pool ([1]; 2102EP cells, Mod Spec raw data, histone H4 K12 unmodified): 93.045 % of peptide pool
H4: K16AC, % of peptide pool ([1]; 2102EP cells, Mod Spec raw data, histone H4 K16 acetylated): 45.5782 % of peptide pool
H4: K16UN, % of peptide pool ([1]; 2102EP cells, Mod Spec raw data, histone H4 K16 unmodified): 54.4218 % of peptide pool
H4: K20AC, % of peptide pool ([1]; 2102EP cells, Mod Spec raw data, histone H4 K20 acetylated): 32.1833 % of peptide pool
H4: K20ME2, % of peptide pool ([1]; 2102EP cells, Mod Spec raw data, histone H4 K20 dimethylated): 44.5336 % of peptide pool
H4: K20ME1, % of peptide pool ([1]; 2102EP cells, Mod Spec raw data, histone H4 K20 monomethylated): 4.33 % of peptide pool
H4: K20ME3, % of peptide pool ([1]; 2102EP cells, Mod Spec raw data, histone H4 K20 trimethylated): 2.102 % of peptide pool
H4: K20UN, % of peptide pool ([1]; 2102EP cells, Mod Spec raw data, histone H4 K20 unmodified): 16.8517 % of peptide pool
change of histone modifications of the expected mode of action (Mod Spec) [1, 4]: decreased ubiquitination (ub) of the target histone H2AK119 [50] could not be detected
off-target changes of histone modifications (Mod Spec) [1, 4]: increase of H3K36me3, H4K20ac, H3K79me1/ac
5hmC levels increase compared to solvent control [2]: 25%
5mC levels compared to solvent control ([2]; solvent control set to 100%): 84%
